From US12325701B2, “YKL-40 inhibitors and their therapeutic” (Molecure S.A., priority 2022, dated 2025)
Structures can show the parent of a compound that is named as a salt.

These compounds were tested against human YKL-40 (Homo sapiens (Human), UniProt P36222) (assay: Human YKL-40 direct binding assay based on MicroScale Thermophoresis (MST)). Conditions: by MST and competitive AlphaScreen for chitin binding site; depends on ligand length, sulphation, Mg2+.
Chain of human YKL-40 (P36222 22-383): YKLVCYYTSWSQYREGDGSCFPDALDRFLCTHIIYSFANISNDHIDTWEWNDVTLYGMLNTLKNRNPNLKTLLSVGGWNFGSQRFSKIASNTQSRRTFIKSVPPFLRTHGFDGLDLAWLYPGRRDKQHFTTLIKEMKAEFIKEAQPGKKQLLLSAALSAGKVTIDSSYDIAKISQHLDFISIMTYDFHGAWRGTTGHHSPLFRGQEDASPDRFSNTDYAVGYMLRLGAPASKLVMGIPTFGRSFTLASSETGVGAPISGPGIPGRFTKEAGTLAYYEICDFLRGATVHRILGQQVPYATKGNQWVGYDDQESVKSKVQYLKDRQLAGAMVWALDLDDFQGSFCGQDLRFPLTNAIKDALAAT
For heparin sodium salt, the “binding affinity to YKL-40 (in words)” value was “high nM affinity”.

The compounds below were run against YKL-40 (YKL-40: heparan sulfate interaction) (Homo sapiens (Human), UniProt P36222) (assay: YKL-40:HS assay, heparan sulfate interference AlphaScreen). Conditions: read-out: YKL-40:HS, IC50/max % inh (max % inh).
Chain of YKL-40 (YKL-40: heparan sulfate interaction) (P36222 22-383): as above
Protocol: Positive and negative control wells received just 8 uL of MST buffer containing 2% DMSO without inhibitor in the 2nd step (ii). In addition, negative control received just 8 uL of MST buffer containing 0% DMSO without YKL-40-histag in the 3nd step (iii). Finally, the plate luminescence was excited at 680 nm and the emission read at 520-620 nm using the AlphaScreen module in the The Spark™ 1 μM multimode microplate reader (Tecan Trading AG, Mannedorf, Switzerland). Inhibition percentage and IC50 values were determined using GraphPad Prism 7.0 software (GraphPad Software, San Diego, CA, USA).
For `CNC(=O)CN1C[C@H](Cc2ccc(Cl)cc2)N(C2CCN(c3ccccn3)CC2)C[C@@H]1CC(C)C` [Compound 95, 2-((2S,5S)-5-(4-chlorobenzyl)-2-isobutyl-4-(1-(pyridin-2-yl)piperidin-4-yl)piperazin-1-yl)-N-methylacetamide 2,2,2-trifluoroacetate], the inhibition was 85%. Compound `Cc1nc(N2CCC(N3C[C@H](C)OC[C@@H]3Cc3ccc(Cl)cc3)CC2)sc1C` [Compound 183, (2S,5S)-5-(4-chlorobenzyl)-4-(1-(4,5-dimethylthiazol-2-yl)piperidin-4-yl)-2-methylmorpholine 2,2,2-trifluoroacetate] has an inhibition of 53%. In the case of `Cc1ccnc(N2CCC(N3C[C@H](C)OC[C@@H]3Cc3ccc(Cl)cc3)CC2)c1F` [Compound 112, (2S,5S)-5-(4-chlorobenzyl)-4-(1-(3-fluoro-4-methylpyridin-2-yl)piperidin-4-yl)-2-methylmorpholine 2,2,2-trifluoroacetate], the inhibition is reported as 30%. In the case of `CN1C[C@H](Cc2ccc(Cl)cc2)N(C2CCN(c3ccccn3)CC2)C[C@@H]1Cc1ccc(Cl)cc1` [Compound 63, (2S,5S)-2,5-bis(4-chlorobenzyl)-1-methyl-4-(1-(pyridin-2-yl)piperidin-4-yl)piperazine 2,2,2-trifluoroacetate], the inhibition is reported as 85%. Compound `CN1C[C@H](Cc2ccc(Cl)cc2)N(C2CCN(c3cc(Cl)ccn3)CC2)C[C@@H]1Cn1ccnc1` [Compound 82, (2R,5S)-2-((1H-imidazol-1-yl)methyl)-5-(4-chlorobenzyl)-4-(1-(4-chloropyridin-2-yl)piperidin-4-yl)-1-methylpiperazine hydrochloride] has an inhibition of 75%.
